Results from paper PMC10285950 (ACS Omega, 2023).
Where “and” joins values, the source holds several entries; their conditions need not be identical. Equal entries are not always repeated.

Columns and labels:
h5HT7A receptor = h5HT7A receptor (Homo sapiens, UniProt P34969); experiment: [3H]5-HT binding at 5HT7A receptors; conditions: HEK cells transiently transfected with h5HT7A
5-HT7AR [1] = biological target: T1, 5-HT7AR (Homo sapiens, UniProt P34969); experiment: HEK-5HT7A/cAMP; format: cell-based
T1 sequence (P34969 1-445 isoform P34969-2): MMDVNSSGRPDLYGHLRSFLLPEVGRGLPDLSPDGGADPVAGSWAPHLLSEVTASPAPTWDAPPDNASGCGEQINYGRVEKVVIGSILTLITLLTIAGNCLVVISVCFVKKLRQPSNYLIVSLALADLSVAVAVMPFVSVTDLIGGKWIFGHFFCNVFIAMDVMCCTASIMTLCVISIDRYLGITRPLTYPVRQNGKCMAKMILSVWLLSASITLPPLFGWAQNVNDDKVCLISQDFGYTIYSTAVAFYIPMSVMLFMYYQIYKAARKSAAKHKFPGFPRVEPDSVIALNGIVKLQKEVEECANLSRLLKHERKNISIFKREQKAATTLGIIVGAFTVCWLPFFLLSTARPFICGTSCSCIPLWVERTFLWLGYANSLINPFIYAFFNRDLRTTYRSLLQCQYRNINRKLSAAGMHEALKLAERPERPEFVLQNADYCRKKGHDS

human 5HT1A receptor = biological target: T2, human 5HT1A receptor (Homo sapiens, UniProt P08908); experiment: [3H]8-OH-DPAT binding at the 5-HT1A receptor; conditions: HEK-h5HT1A membranes
T2 sequence (P08908 1-422): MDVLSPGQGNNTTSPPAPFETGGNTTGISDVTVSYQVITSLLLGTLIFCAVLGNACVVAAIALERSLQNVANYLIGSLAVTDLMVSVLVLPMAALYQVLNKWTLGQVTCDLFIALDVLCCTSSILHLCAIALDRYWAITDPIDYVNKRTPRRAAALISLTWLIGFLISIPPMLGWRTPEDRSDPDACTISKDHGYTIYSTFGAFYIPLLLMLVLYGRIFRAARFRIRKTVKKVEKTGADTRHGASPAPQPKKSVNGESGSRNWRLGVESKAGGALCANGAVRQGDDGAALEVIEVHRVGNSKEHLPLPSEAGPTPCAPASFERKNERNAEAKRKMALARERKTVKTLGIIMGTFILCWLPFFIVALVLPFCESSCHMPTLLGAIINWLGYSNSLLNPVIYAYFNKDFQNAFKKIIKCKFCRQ

5-HT7AR [2] = biological target: T1, 5-HT7AR; experiment: HEK-5HT7A/cAMP; format: cell-based; remark: listed apart in the source
[3] = biological target: T3, 5-HT1AR (HEK-h5HT1A membranes) (Homo sapiens, UniProt P08908); experiment: HEK-5HT1A [35S]GTPγS binding functional assay; format: biochemical; conditions: for 5-HT1AR [35S]GTPγS assay % max ± SEM: maximal effect normalized to maximal effect of serotonin; for functional character at 5-HT1AR ([35S]GTPγS assay): result in words
T3 sequence (P08908 1-422): T2 sequence (P08908 1-422)

h5HT7A receptor, sequence (P34969 1-445 isoform P34969-2): as the sequence (P34969 1-445 isoform P34969-2) above

Structure (SMILES) | 5-HT7AR [3H]5-HT binding hill slope ± SEM (h5HT7A receptor) | inhibition (5-HT7AR [1]; read-out: 5-HT7AR adenylate cyclase % max inhib. ± SEM) [%] | 5-HT1AR [3H]8-OH-DPAT binding hill slope ± SEM (human 5HT1A receptor) | agonist activity at 5-HT7AR (5-HT7AR [2]; result in words) | 5-HT7AR adenylate cyclase % max inhib. ± SEM (5-HT7AR [1]; maximal inhibition of cAMP formation defined with 10 μM lurasidone) [%] | 5-HT1AR [35S]GTPγS assay % max ± SEM [3] | functional character at 5-HT1AR ([35S]GTPγS assay) [3] | 5-HT7AR adenylate cyclase % max ± SEM (5-HT7AR [2]; agonist effect, normalized to maximal serotonin effect) | 5-HT1AR [35S]GTPγS assay % max ± SEM ([3]; listed as serotonin (5-HT)) [%]
O=C1[C@@H]2[C@H]3CC[C@H](C3)[C@@H]2C(=O)N1C[C@@H]1CCCC[C@H]1CN1CCN(c2nsc3ccccc23)CC1 [lurasidone] | –0.76 ± 0.11 | 98 ± 2 | – | – | – | – | – | – | –
CC1(CCCN2CCN(c3ccccn3)CC2)Cc2cc(Cl)ccc2C1=O (racemic) [SYA0340, 5-chloro-2-methyl-2-(3-(4-(pyridin-2-yl)piperazin-1-yl)propyl)-2,3-dihydro-1H-inden-1-one] | –0.59 ± 0.03 | – | –0.66 ± 0.09 | do not show any agonist activity | 94.7 ± 4.1 | 101.5% and 101.5 ± 2.8% | full agonist | – | –
NCCc1c[nH]c2ccc(O)cc12 [5-HT, serotonin] | –1.07 ± 0.09 | – | –0.96 ± 0.06 | – | – | 101.2 ± 1.1% | full agonist | 95.8% and 95.8 ± 1.6% | 101.2
